Laboratory results published in patent US10821069B2, “Aqueous extract of truffle and cosmetic composition thereof” (ISP INVESTMENTS LLC, priority 2014, dated 2020).

Test system: Normal human keratinocytes
Assay: Mitochondrial ROS production after rotenone-induced production of ROS (MITOSOX staining)
Assay type: cell-based
Conditions: 1 μM Rotenone for 4 hours, no extract
Experimental: The purpose of this study is to determine the influence of the Truffle extract according to example 2 regarding the mitochondrial Reactive oxygen Species (ROS) production. Mitochondrial ROS were induced by rotenone, an electron transport chain complex inhibitor.
Method: Normal human keratinocytes extracted from a […] […] abdominal skin were seeded in 8 well culture PERMANOX® plastic slides (Thermo Scientific, Waltham, Mass., USA). Cells were pre-treated with two applications per day of the Truffle extract of example 2 (at 0.01% and 0.05%) for 48 h in KSFM medium (Gibco, Auckland, NZ) supplemented with 50 μg·ml-1 bovine pituitary extract (Gibco), 5 ng·ml-1 human recombinant EGF (Gibco) and 0.1 mg·ml-1 PRIMOCIN™ (Invivogen, San Diego, Calif., USA). Then cells were submitted to 1 μM Rotenone application for 4 hours. Immediately after the stress, culture medium was replaced with fresh KSFM for 1 hour. At the end of incubation, a 5 μM MITOSOX® (Life Technologies, Carlsbad, Calif., USA) solution was incubated further for 20 min at 37° C. in 5% CO2 atmosphere. […] Digital images were acquired with an inverted Zeiss Axiovert 200M microscope (Zeiss, Oberkochen, Germany) with a 20× objective. […] Statistical significance of the data was assessed by paired Student's t-test (n=3, p<0.05 was considered significant; p<0.01 as very significant and p<0.005 as highly significant).

## C=C(C)[C@H]1Cc2c(ccc3c2O[C@@H]2COc4cc(OC)c(OC)cc4[C@@H]2C3=O)O1 [rotenone]
  increase in ROS production in keratinocytes compared to untreated control: 45%
